Source: ChEMBL document CHEMBL3244083, “Fluorinated Pyrimidine nucleosides. 1. Synthesis of a nitrogen analogue of the antitumor agent 2,2'-anhydro-1-beta-D-arabinofuranosyl-5-fluorocytosine hydrochloride” (J Med Chem, 1977)
Active and inactive are the calls of the source. The calls are words filed in the database; no cut-off is given here.

Legend:
CCRF S-180 [1] = test: Antitumor activity against mouse S180 cells allografted in mouse assessed as tumor growth inhibition at 50 mg/kg, ip qd for 8 days; format: functional, organism-based; design: dose 50 mg/kg
CCRF S-180 [2] = test: Antitumor activity against mouse S180 cells allografted in mouse assessed as tumor growth inhibition at 5 mg/kg, ip qd for 8 days; format: functional, organism-based; design: dose 5 mg/kg
CCRF S-180 [3] = test: Antitumor activity against mouse S180 cells allografted in mouse assessed as tumor growth inhibition at 1 to 5 mg/kg, ip qd for 8 days; format: functional, organism-based
[4] = Stability of the compound at pH 7.4; format: physicochemical; conditions: buffer
CCRF S-180 [5] = test: Antitumor activity against mouse S180 cells allografted in mouse assessed as tumor growth inhibition at 100 mg/kg, ip qd for 8 days; format: functional, organism-based; design: dose 100 mg/kg

Structure (SMILES): Nc1nc(=O)c(F)cn1[C@@H]1O[C@H](CO)[C@@H](O)[C@H]1O
- TGI (CCRF S-180 [1]): inactive

Structure (SMILES): O=c1[nH]c(=O)n([C@@H]2O[C@H](CO)[C@@H](O)[C@H]2O)cc1F
- TGI (CCRF S-180 [2]): Active

Structure (SMILES): Nc1nc(=O)n([C@@H]2O[C@H](CO)[C@@H](O)[C@H]2O)cc1F
- TGI (CCRF S-180 [3]): Active

Structure (SMILES): O=c1nc2n(cc1F)[C@@H]1O[C@H](CO)[C@@H](O)[C@@H]1N2
- TGI (CCRF S-180 [1]): inactive
- Stability [4]: Stable

Structure (SMILES): O=c1[nH]c(=O)n([C@@H]2O[C@H](CI)[C@@H](O)[C@H]2O)cc1F
- TGI (CCRF S-180 [1]): inactive

Structure (SMILES): Nc1nc(N)[n+]([C@@H]2O[C@H](CO)[C@@H](O)[C@H]2O)cc1F
- TGI (CCRF S-180 [1]): inactive

Structure (SMILES): Nc1nc2[n+](cc1F)[C@@H]1O[C@H](CO)[C@@H](O)[C@@H]1N2.[Cl-]
- Stability [4]: Stable
- TGI (CCRF S-180 [5]): inactive
